Measurements taken from patent publication US20220096475A1, “METHOD FOR TREATING SARCOIDOSIS-ASSOCIATED PULMONARY HYPERTENSION” (ALTAVANT SCIENCES GmbH, priority 2018, published 2022).

What was measured:
[1] = biological target: T1, TPH1 (Mus musculus, UniProt P17532); settings: amorphous form; cited from earlier work
T1 construct: from tissue; host or cells: mice (in vivo)
T1 sequence (P17532 1-447): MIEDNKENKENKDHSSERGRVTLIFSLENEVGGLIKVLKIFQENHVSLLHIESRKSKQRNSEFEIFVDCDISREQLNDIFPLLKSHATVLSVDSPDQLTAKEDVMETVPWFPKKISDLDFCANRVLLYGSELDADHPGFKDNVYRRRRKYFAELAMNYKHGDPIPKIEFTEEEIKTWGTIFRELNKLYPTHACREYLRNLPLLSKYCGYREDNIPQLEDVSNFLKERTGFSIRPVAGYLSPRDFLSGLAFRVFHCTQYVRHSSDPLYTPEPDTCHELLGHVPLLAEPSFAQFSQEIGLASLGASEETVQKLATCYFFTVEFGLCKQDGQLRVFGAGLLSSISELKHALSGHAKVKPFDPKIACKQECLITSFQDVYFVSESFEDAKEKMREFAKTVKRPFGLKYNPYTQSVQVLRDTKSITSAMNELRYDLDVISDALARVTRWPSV

[2] = stability and shelf life of crystalline polymorphs; type: physicochemical; settings: particularly at temperatures of less than 95° C.

SMILES | efficacy in inhibiting TPH1 in mice [1] | stability and shelf life compared to the crystalline Form 1 polymorph [2]
CCOC(=O)[C@@H]1CC2(CCN(c3cc(O[C@H](c4ccc(Cl)cc4-c4ccccc4)C(F)(F)F)nc(N)n3)CC2)CN1 [Compound A, (S)-ethyl 8-(2-amino-6-((R)-1-(5-chloro-[1,1′-biphenyl]-2-yl)-2,2,2-trifluoroethoxy)pyrimidin-4-yl)-2,8-diazaspiro[4.5]decane-3-carboxylate] | demonstrated | 
CCOC(=O)[C@@H]1CC2(CCN(c3cc(O[C@H](c4ccc(Cl)cc4-c4ccccc4)C(F)(F)F)nc(N)n3)CC2)CN1 [crystalline Form 3 polymorph, (S)-ethyl 8-(2-amino-6-((R)-1-(5-chloro-[1,1′-biphenyl]-2-yl)-2,2,2-trifluoroethoxy)pyrimidin-4-yl)-2,8-diazaspiro[4.5]decane-3-carboxylate] |  | substantially greater stability and shelf life
